# Test results as given in US20230345984A1, “SWEETENERS” (Sweegen, Inc, priority 2022, published 2023).
# Non-standard residues stand in square brackets, D forms with d. No end group written: not given here. pGlu = O=C1CC[C@@H](C(=O)O)N1
# Experiments:
# [1] = Sweetness grading of sweetener solutions on a scale from 0 to 15 over 7 days; settings: for Sweetness score Day 1 / Sweetness score Day 4 / Sweetness score Day 5 / Sweetness score Day 6 / Sweetness score Day 7: scale of 0-15
# Experimental: Formulations comprising brazzein and rebaudiosides were developed and their relative sweetness was assessed. Sweetness was graded on a scale from 0 (no sweetness) to 15 (maximal sweetness) and assessed for the different formulations over a period of 7 days.
# [2] = cited from earlier work
# [3] = cited from earlier work; remark: listed apart in the source
# [4] = Sensory grading (0 to 9) of flavor and sweetness of chocolate formulations with versus without brazzein; settings: chocolate with Reb D, Reb E, Reb I, Reb M, with vs without brazzein; FIG. 2B
# Experimental: Formulations comprising brazzein and chocolate were developed, and their relative flavor and sweetness were assessed. Sweetness and flavor were graded across different factors on a scale from 0 (minimum) to 9 (maximal) and assessed for the different formulations. Different factors tested include sweet taste, bitter taste, chocolate flavor, dairy flavor, sweet aromatics, and green/vegetative. The formulations tested comprise brazzein, Reb D, Reb E, Reb I, Reb M and chocolate compared to a control (chocolate comprising Reb D, Reb E, Reb I, and Reb M).
# The sweetness is enhanced by having the early onset and slow fade more like sugar than chocolate that is only sweetened with Reb D, Reb E, Reb I, and Reb M. Therefore, including brazzein in food compositions, such as chocolate, enhance the flavor and sweetness of the composition.
Compound,Sweetness score Day 1 [1],Sweetness score Day 4 [1],Sweetness score Day 5 [1],Sweetness score Day 6 [1],Sweetness score Day 7 [1],other results
"C=C1C[C@@]23CC[C@H]4[C@@](C)(CCC[C@@]4(C)C(=O)O[C@@H]4O[C@H](CO)[C@@H](O)[C@H](O[C@@H]5O[C@H](CO)[C@@H](O)[C@H](O)[C@H]5O)[C@H]4O[C@@H]4O[C@H](CO)[C@@H](O)[C@H](O)[C@H]4O)[C@@H]2CC[C@]1(O[C@@H]1O[C@H](CO)[C@@H](O)[C@H](O[C@@H]2O[C@H](CO)[C@@H](O)[C@H](O)[C@H]2O)[C@H]1O[C@@H]1O[C@H](CO)[C@@H](O)[C@H](O)[C@H]1O)C3 [Reb M at SE of 5% sucrose, Rebaudioside M]",5,5,5,5,5,
"OC[C@H]1O[C@@](CO)(O[C@H]2O[C@H](CO)[C@@H](O)[C@H](O)[C@H]2O)[C@@H](O)[C@@H]1O [Sucrose (5%), Sucrose]",5,5,5,5,5,
"PyrE-bra: major form brazzein, pyroglutamic acid at N-terminus, 54 amino acid residues ([pGlu]DKCKKVYENYPVSKCQLANQCNYDCKLDKHARSGECFYDEKRNLQCICDYCEY; cysteine pairing not given here; UniProt P56552 1-54, looked up)",,,,,,Times sweeter than 10% sucrose solution ([2]; vs 10% sucrose solution): 500 times
brazzein: natural peptide sweetener first isolated from the fruit of Pentadiplandra brazzeana Baillon (SEQ ID NO: 12) (QDKCKKVYENYPVSKCQLANQCNYDCKLDKHARSGECFYDEKRNLQCICDYCEY; Pentadiplandra brazzeana Baillon),,,,,,"Times sweeter than sucrose on a weight basis ([2]; weight basis): 500-2000 times; Effect on perceived sweetness profile of the solution ([1]; 25 ppm brazzein added to a 5% sucrose solution): slightly enhanced; Sweetness over the 7-day period ([1]; 25 ppm brazzein in 5% sucrose solution): remained stable; Effect on sweetness of a Reb M solution ([1]; brazzein added to Reb M solution with SE of 5% sucrose, compared to sucrose plus brazzein): synergistically enhanced; Sweet taste after incubation at 80° C. for 4.5 hours ([3]; 80° C., 4.5 hours, pH range of 2.5-8.0): sweet taste remains; Sweet taste after incubation at 98° C. for 2 hours ([3]; 98° C., 2 hours): sweet taste remains; Astringency [4]: decreased; Bitter taste at 120 seconds [4]: decreased"
